In brackets after ≈: the same amount, converted by molar mass. Activity calls are given as the source filed them. The rule behind the calls is not given here.
Experiments:
[1] = molecular target: T1, 5-hydroxytryptamine receptor 1A (Homo sapiens, UniProt P08908); assay: Agonist activity at 5HT1A receptor (unknown origin) by calcium-dye based FLIPR assay; format: functional
T1 sequence (P08908 whole entry): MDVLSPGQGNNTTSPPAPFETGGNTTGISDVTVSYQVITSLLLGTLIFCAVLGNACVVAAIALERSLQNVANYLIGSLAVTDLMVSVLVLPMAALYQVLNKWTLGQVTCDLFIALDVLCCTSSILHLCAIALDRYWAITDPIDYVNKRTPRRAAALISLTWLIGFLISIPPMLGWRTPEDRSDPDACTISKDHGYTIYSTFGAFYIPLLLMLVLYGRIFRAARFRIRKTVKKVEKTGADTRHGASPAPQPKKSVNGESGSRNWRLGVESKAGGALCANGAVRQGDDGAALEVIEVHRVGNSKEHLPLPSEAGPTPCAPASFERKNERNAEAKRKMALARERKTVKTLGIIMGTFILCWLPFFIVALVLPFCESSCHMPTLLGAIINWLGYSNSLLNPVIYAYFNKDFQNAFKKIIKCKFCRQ

[2] = molecular target: 5-hydroxytryptamine receptor 2A (Homo sapiens, UniProt P28223); assay: Antagonist activity at 5HT2A receptor (unknown origin) by HTRF cAMP assay; format: functional
Chain of 5-hydroxytryptamine receptor 2A (P28223 whole entry): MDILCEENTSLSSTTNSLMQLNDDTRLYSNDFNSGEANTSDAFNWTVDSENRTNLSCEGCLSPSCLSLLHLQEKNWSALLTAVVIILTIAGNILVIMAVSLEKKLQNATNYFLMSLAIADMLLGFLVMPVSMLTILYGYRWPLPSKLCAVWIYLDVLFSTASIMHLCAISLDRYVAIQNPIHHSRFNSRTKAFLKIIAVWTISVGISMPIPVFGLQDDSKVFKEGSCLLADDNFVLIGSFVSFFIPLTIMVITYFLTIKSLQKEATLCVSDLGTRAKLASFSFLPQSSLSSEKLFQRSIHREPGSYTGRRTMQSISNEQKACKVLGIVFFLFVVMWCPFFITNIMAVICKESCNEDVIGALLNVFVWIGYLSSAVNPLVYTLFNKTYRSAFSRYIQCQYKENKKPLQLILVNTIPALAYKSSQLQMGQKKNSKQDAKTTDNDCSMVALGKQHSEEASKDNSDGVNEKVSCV

Mus musculus [3] = assay: Antipsychotic activity in ICR mouse assessed as inhibition of quipazine-induced head-twitch response at 0.3 mg/kg, po administered with compound after quipazine administration measured for 15 mins; format: functional, organism-based
[4] = molecular target: Sodium-dependent serotonin transporter (Homo sapiens) (UniProt P31645); settings: 400 nM
Chain of Sodium-dependent serotonin transporter (Homo sapiens) (P31645 whole entry, looked up): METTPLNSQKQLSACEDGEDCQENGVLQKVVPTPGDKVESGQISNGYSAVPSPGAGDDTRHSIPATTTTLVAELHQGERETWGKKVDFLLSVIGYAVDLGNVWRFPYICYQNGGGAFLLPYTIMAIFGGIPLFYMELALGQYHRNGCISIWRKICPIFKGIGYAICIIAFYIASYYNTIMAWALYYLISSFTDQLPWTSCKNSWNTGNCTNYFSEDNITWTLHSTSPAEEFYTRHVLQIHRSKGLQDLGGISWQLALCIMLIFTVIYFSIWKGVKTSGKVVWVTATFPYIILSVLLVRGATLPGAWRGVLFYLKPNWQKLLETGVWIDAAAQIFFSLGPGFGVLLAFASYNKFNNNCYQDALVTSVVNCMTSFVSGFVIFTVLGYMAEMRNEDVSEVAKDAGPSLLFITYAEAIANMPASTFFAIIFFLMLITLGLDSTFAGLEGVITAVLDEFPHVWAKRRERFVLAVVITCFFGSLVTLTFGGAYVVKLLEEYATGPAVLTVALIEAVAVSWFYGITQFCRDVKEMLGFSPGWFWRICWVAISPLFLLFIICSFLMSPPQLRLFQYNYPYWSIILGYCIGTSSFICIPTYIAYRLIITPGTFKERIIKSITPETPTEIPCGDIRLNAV
Description: Antagonist activity at SERT receptor (unknown origin) at 400 nM by fluorescence based assay relative to control

[5] = molecular target: Voltage-gated inwardly rectifying potassium channel KCNH2 (Homo sapiens, UniProt Q12809); assay: Inhibition of human ERG
Chain of Voltage-gated inwardly rectifying potassium channel KCNH2 (Q12809 whole entry): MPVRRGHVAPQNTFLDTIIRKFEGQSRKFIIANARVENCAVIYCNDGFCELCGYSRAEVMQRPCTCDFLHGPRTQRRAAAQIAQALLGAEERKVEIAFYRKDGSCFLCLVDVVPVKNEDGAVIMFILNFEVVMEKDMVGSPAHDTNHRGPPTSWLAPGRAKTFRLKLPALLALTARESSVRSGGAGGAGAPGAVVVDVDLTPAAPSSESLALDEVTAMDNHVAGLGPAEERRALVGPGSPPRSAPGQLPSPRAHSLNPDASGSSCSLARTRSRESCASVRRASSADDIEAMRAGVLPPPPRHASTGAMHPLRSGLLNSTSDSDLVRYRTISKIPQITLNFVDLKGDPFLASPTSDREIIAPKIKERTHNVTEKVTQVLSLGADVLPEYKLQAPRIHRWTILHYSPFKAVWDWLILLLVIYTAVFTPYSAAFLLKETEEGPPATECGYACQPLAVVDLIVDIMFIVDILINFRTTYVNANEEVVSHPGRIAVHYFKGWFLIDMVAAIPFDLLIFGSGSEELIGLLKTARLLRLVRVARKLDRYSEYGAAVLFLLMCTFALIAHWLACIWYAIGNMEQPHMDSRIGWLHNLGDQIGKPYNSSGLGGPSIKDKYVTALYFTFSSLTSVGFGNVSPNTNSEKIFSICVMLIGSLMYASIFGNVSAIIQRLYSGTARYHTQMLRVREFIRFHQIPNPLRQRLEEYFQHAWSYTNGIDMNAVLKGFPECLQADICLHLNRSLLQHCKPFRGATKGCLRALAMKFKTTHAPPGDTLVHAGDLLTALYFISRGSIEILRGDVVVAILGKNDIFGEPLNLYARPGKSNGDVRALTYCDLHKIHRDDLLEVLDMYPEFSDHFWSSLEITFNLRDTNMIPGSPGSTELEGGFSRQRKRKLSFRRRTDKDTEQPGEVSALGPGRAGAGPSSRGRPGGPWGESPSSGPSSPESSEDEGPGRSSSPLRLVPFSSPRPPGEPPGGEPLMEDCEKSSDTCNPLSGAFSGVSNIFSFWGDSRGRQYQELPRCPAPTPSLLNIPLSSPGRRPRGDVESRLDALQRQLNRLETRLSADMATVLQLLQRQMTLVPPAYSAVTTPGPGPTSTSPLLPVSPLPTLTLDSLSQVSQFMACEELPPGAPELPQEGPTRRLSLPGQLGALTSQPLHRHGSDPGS

[6] = molecular target: Muscarinic acetylcholine receptor M3 (Homo sapiens, UniProt P20309); assay: Antagonist activity at muscarinic M3 receptor (unknown origin); format: ADME
Chain of Muscarinic acetylcholine receptor M3 (P20309 whole entry): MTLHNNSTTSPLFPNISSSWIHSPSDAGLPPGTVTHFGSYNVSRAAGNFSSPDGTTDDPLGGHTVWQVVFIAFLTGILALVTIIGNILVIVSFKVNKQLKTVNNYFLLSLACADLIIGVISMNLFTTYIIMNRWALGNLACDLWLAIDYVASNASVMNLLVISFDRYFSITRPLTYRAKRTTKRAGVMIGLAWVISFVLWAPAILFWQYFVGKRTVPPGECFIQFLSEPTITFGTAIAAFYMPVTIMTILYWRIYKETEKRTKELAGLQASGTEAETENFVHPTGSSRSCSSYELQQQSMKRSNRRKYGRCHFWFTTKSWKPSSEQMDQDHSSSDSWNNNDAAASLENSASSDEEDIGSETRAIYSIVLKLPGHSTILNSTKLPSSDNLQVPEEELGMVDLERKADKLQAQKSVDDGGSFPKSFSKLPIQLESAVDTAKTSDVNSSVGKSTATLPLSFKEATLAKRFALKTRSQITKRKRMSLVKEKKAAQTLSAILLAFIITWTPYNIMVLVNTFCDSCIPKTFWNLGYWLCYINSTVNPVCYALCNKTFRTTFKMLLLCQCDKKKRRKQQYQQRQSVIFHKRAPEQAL

[7] = molecular target: T2, 5-hydroxytryptamine receptor 2C (Homo sapiens, UniProt P28335); assay: Antagonist activity at 5-HT2C receptor (unknown origin)
T2 sequence (P28335 whole entry): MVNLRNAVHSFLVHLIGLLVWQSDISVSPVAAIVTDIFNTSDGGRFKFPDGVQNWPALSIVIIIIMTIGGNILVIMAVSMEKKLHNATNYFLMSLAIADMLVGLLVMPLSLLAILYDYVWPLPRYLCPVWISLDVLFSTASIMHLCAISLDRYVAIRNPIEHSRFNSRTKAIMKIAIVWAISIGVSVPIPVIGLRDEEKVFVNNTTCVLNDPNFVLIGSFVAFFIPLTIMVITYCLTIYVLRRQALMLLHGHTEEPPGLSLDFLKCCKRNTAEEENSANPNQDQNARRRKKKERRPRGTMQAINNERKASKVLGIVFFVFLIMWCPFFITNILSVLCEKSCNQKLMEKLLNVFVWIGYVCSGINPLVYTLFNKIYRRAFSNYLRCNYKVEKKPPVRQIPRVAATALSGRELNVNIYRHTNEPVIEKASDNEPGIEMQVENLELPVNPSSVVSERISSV

D(2) dopamine receptor [8] = molecular target: T3, D(2) dopamine receptor (Homo sapiens, UniProt P14416); assay: Agonist activity at D2 receptor (unknown origin)
T3 sequence (P14416 whole entry): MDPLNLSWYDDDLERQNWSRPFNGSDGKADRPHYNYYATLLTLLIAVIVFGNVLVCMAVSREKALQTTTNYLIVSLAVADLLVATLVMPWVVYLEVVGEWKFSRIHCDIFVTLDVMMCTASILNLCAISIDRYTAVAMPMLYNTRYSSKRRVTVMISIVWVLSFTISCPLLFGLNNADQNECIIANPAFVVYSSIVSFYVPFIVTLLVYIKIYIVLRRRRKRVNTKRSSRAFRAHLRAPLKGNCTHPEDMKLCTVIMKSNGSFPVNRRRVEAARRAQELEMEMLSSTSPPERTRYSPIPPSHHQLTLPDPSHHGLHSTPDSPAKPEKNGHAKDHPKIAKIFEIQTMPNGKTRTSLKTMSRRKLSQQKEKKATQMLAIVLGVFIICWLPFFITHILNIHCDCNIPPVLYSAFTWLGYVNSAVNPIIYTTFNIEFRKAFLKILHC

D(2) dopamine receptor [9] = molecular target: T3, D(2) dopamine receptor; assay: Agonist activity at D2 receptor (unknown origin) relative to 10 uM dopamine
[10] = Cytotoxicity against human Chang cells assessed as reduction in cell viability; format: cell-based
HEK293 = assay: Cytotoxicity against human HEK293 cells assessed as reduction in cell viability; format: cell-based
Histamine H1 receptor = Histamine H1 receptor (Homo sapiens, UniProt P35367); assay: Antagonist activity at H1 receptor (unknown origin); format: ADME
Chain of Histamine H1 receptor (P35367 whole entry): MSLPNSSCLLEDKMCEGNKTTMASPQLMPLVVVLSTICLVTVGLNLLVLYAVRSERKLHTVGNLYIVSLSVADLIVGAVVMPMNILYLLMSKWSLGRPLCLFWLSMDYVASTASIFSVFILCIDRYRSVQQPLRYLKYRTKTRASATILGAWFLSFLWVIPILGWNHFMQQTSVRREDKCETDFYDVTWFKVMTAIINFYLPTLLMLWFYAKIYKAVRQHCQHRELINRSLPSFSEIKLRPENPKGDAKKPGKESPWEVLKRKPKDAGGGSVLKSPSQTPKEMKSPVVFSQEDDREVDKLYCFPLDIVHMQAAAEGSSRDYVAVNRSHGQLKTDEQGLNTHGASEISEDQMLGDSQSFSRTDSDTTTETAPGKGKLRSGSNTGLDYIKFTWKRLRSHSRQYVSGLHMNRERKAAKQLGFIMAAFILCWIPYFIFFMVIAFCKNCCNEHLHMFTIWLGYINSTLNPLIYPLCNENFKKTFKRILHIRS

Mus musculus [11] = assay: Antipsychotic activity in po dosed ICR mouse assessed as inhibition of quipazine-induced head-twitch response administered with compound after quipazine administration measured for 15 mins; format: functional, organism-based
[12] = Toxicity in mouse assessed as sedation by measuring spontaneous locomotor activity at 0.3 mg/kg, po; format: organism-based; settings: in vivo
[13] = Toxicity in mouse assessed as sedation by measuring spontaneous locomotor activity at 3 to 10 mg/kg, po; format: organism-based; settings: in vivo
Mus musculus [14] = assay: Antipsychotic activity in po dosed mouse assessed as inhibition of phencyclidine-induced hyperlocomotion administered with compound after phencyclidine challenge measured for 75 mins; format: functional, organism-based

| SMILES | EC50 [1] | IC50 [2] | also measured |
| --- | --- | --- | --- |
| O=c1n(CCCCN2CCN(c3cccc4scnc34)CC2)nc2c(F)cccn12 | 0.1 nM | 77.8 nM |  |
| O=c1n(CCCCN2CCN(c3cccc4sccc34)CC2)nc2c(Cl)cc(Cl)cn12 | 0.1 nM | 652 nM |  |
| N#Cc1cccn2c(=O)n(CCCCN3CCN(c4cccc5sccc45)CC3)nc12 | 1.4 nM | 155 nM |  |
| O=c1n(CCCCN2CCN(c3cccc4scnc34)CC2)nc2ccccn12 | 2.8 nM | 2730 nM |  |
| O=C1CCc2ccc(OCCCCN3CCN(c4cccc(Cl)c4Cl)CC3)cc2N1 |  |  | inhibition (Mus musculus [3]): Active; inhibition [4]: 21% |
| O=c1n(CCCCN2CCN(c3cccc4sccc34)CC2)nc2c(Cl)cccn12 | 12.1 nM | 368 nM |  |
| O=c1n(CCCCN2CCC(c3cc(F)cc4oncc34)CC2)nc2ccccn12 | > 10000 nM | 15.2 nM |  |
| O=c1n(CCCCN2CCN(c3cccc4sccc34)CC2)nc2c(F)cccn12 | 1.8 nM | 35.5 nM | inhibition (Mus musculus [3]): Active; IC50 [5]: 2200 nM; IC50 [6]: > 10000 nM; IC50 [7]: 2100 nM |
| Cc1nc2n(c(=O)c1CCN1CCC(c3noc4cc(F)ccc34)CC1)CCCC2 [RISPERIDONE] |  |  | EC50 (D(2) dopamine receptor [8]): Not Active; Emax (D(2) dopamine receptor [9]): < 20%; IC50 [10]: 239 µg/mL (≈ 582 µM); IC50 (HEK293): > 600 µg/mL |
| COc1cccn2c(=O)n(CCCCN3CCN(c4cccc5sccc45)CC3)nc12 | 2.2 nM | 85.2 nM |  |
| O=c1ccc2ccc(OCCCCN3CCN(c4cccc5sccc45)CC3)cc2[nH]1 [BREXPIPRAZOLE] |  |  | EC50 (D(2) dopamine receptor [8]; read-out: EC50): 6.3 nM; Emax (D(2) dopamine receptor [9]): 29%; IC50 [10]: 44.2 µg/mL (≈ 102 µM); IC50 (HEK293): 19.1 µg/mL (≈ 44.1 µM) |
| O=c1n(CCCN2CCN(c3cccc(Cl)c3)CC2)nc2ccccn12 [TRAZODONE] |  |  | EC50 (D(2) dopamine receptor [8]): Not Active; Emax (D(2) dopamine receptor [9]): < 20% |
| N#Cc1ccc2nn(CCCCN3CCN(c4cccc5sccc45)CC3)c(=O)n2c1 | 9.7 nM | 11 nM | IC50 [5]: 1050 nM; IC50 [6]: > 10000 nM; IC50 [7]: 3290 nM; IC50 (Histamine H1 receptor): 76.6 nM |
| N#Cc1cccc2nn(CCCCN3CCN(c4cccc5sccc45)CC3)c(=O)n12 | 20.2 nM | 104 nM |  |
| O=c1n(CCCCN2CCN(c3cccc4sccc34)CC2)nc2ccc(Cl)cn12 | 9.5 nM | 144 nM |  |
| COc1cccc2nn(CCCCN3CCN(c4cccc5sccc45)CC3)c(=O)n12 | 2 nM | 13 nM | inhibition (Mus musculus [3]): Active |
| O=c1n(CCCCN2CCN(c3cccc4sccc34)CC2)nc2c(F)cc(F)cn12 | 1.2 nM | 27 nM |  |
| O=c1n(CCCCN2CCN(c3cccc4sccc34)CC2)nc2c(Br)cccn12 | 7 nM | 131 nM |  |
| O=c1n(CCCCN2CCN(c3cccc4sccc34)CC2)nc2ccccn12 | 1.7 to 1.8 nM | 34.2 nM | inhibition (Mus musculus [11]): Dose-dependent effect; IC50 (HEK293): 108 µg/mL (≈ 265 µM); Activity [12]: Non-Toxic; Activity [13]: Toxic; inhibition (Mus musculus [14]): Dose-dependent effect; inhibition (Mus musculus [3]): Active; IC50 [5]: 3010 nM; IC50 [6]: > 10000 nM; IC50 [7]: > 10000 nM; IC50 (Histamine H1 receptor): 88.5 nM |
| N#Cc1ccn2c(=O)n(CCCCN3CCN(c4cccc5sccc45)CC3)nc2c1 | 5.9 nM | 726 nM |  |
| O=c1n(CCCCN2CCN(c3cccc4sccc34)CC2)nc2ccc(F)cn12 | 0.1 nM | 46.3 nM |  |
| O=c1n(CCCCN2CCN(c3cccc4sc(F)cc34)CC2)nc2c(F)cccn12 | 1.53 nM | 1070 nM |  |
